Like-named read-outs stand apart in the source and are kept apart here.
Experiments:
[1] = target: T1, human adenosine A2b receptor (Homo sapiens, UniProt P29275); test: Adenosine A2b receptor reporter gene assay (luciferase, CHO-A2b cells); type: cell-based; details: CHO cells transfected with human A2b receptor and pCRE-LUCI; NECA as agonist; KB from shift of the curve at 100 nM or 1 μM antagonist
T1 construct: expressed in transfected cells; host or cells: CHO cells, co-transfected with the pCRE-LUCI reporter plasmid
T1 sequence (P29275 1-332): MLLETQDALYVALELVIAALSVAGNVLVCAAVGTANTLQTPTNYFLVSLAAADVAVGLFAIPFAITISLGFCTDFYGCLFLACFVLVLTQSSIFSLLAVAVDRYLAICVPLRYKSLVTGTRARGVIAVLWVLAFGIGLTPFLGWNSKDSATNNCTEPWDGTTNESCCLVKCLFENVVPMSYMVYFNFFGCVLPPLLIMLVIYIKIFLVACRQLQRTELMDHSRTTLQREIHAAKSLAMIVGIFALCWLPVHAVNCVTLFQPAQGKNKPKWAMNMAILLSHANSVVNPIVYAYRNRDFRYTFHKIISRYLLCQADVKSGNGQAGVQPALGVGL
Method: Adenosine A2b Receptor Reporter Gene Assay a) Culturing of Chinese Hamster Ovary (CHO) A2b Cell Line
CHO cells transfected with a Luciferase-expressing reporter plasmid (pCRE-LUCI) and with a plasmid carrying the human adenosine A2b receptor structural gene (pA2bRCV) are routinely cultured in Dulbecco's Modified Eagle Medium (DMEM)—supplemented with 10% v/v fetal calf serum (FCS), 2 mM L-glutamine, 0.4 mg/ml L-proline, 1 nM sodium selenite, 0.5 mg/ml Hygromycin B and 1 mg/ml Geneticin—at 37° C., 5% CO2 and 100% humidity. The cells are left to grow to confluence for 4–5 days. The cells obtained are passaged using trypsin/EDTA and split at a ratio of 1 in 5. […]
b) Preparation of Cells for Assay
Prior to the assay, the CHO-A2b cells are plated onto white 96-well View Plate tissue culture plates (Packard) at a density of 50,000 cells per well in […] of DMEM, and the plates are incubated at 37° C., 5% CO2 and 100% humidity. […]
c) Preparation of Reference and Test Compounds
10 mM solutions of the reference compound, Xanthine Amine Cogener (XAC), and the test compound in dimethyl sulfoxide (DMSO) are prepared. The solutions are further diluted with DMSO to 100 μM, then diluted to 10 μM, and finally to 250 nM or 2.5 μM with Assay Buffer (DMEM Phenol Red-free tissue culture media supplemented with 10 μM Rolipram and 10 U/ml adenosine deaminase (ADA). The resulting solutions (40 μl) are added to the cells in the appropriate wells, the final concentration per well being 100 nM or 1 μM, and the plates are incubated at 37° C., 5% CO2 and 100% humidity. […]
d) Luciferase Reporter Gene Assay
5′-N-ethylcarboxamidoadenosine (NECA), an adenosine A2b agonist, is prepared as a […] solution in DMSO and then diluted to 100 μM with Assay Buffer. This solution is serially diluted in Assay Buffer to give a series of 10 NECA concentrations from 100 to 0.01 μM. 10 μl portions of the resulting NECA solutions are added to the mixtures of CHO-A2b cells and reference or test compound solutions prepared as described above (preincubated for 30 minutes), final concentrations ranging from 10 to 0.0005 μM per well. The cells are incubated at 37° C., 5% CO2 and 100% humidity for 3 hours to induce release of cAMP, which then binds to cAMP binding protein (CBP) and the resulting complex interacts with the reporter plasmid to express Luciferase. 100 μl of Steady-Glo, a Luciferase assay substrate from Promega, is added to all wells to lyse the cells and generate luminescence in proportion to the amount of Lucifrease produced. The plates are left for a minimum of 5 minutes before being read on the luminescence program of a Topcount NXT microplate scintillation counter (ex Packard). Concentration—response curves are plotted from the luminescence data using Activitybase software and KB values for the antagonists under test are calculated from the shifts of the curve at a particular concentration (KB=[antagonist]/(concentration ratio−1)

adenosine A3 receptor = target: T2, adenosine A3 receptor (Homo sapiens, UniProt P0DMS8)
T2 sequence (P0DMS8 1-318): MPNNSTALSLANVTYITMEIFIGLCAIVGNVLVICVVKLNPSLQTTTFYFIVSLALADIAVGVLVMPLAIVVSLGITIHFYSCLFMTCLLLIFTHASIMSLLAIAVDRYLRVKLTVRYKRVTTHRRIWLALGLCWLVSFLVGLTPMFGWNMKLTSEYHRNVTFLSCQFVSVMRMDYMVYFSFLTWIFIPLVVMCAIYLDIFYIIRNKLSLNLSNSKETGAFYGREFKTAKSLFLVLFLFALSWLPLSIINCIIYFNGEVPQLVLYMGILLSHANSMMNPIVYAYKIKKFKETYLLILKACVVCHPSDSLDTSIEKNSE

[2] = read-out: KI value in adenosine A3 receptor assay, assay as described in WO 99/64418

COc1ccc(C(=O)Nc2nc(-c3cccc(C#N)c3)c(-n3cncn3)s2)cc1 [Example 12, N-[4-(3-Cyano-phenyl)-5-[1,2,4]triazol-1-yl-thiazol-2-yl]-4-methoxy-benzamide]
Kb [1]: 31 nM | melting point: 292 to 294 °C

Cc1cccc(Nc2nc(-c3cccc(C#N)c3)c(-n3cncn3)s2)n1 [Example 15, 3-[2-(6-Methyl-pyridin-2-ylamino)-5-[1,2,4]triazol-1-yl-thiazol-4-yl]-benzonitrile]
Kb [1]: 20 nM

N#Cc1cccc(-c2nc(Nc3cnccn3)sc2-n2cncn2)c1 [Example 27, (3-[2-(Pyrazin-2-ylamino)-5-[1,2,4]triazol-1-yl-thiazol-4-yl]-benzonitrile)]
Kb [1]: 10 nM | Ki (adenosine A3 receptor; [2]): 16 nM

Cn1cccc1C(=O)Nc1nc(-c2cccc(C#N)c2)c(-n2cncn2)s1 [Example 36, 1-Methyl-1H-pyrrole-2-carboxylic Acid [4-(3-cyano-phenyl)-5-[1,2,4]triazol-1-yl-thiazol-2-yl]-amide]
Kb [1]: 17 nM | melting point: 245 to 247 °C

COCCOc1cncc(Nc2nc(-c3cccc(C#N)c3)c(-n3cncn3)s2)n1 [Example 38]
Kb [1]: 12 nM | Ki (adenosine A3 receptor): 4 nM

(3-[5-(2-Methyl-imidazol-1-yl)-2-(pyrazin-2-ylamino)-triazol-4-yl]-benzonitrile) [Example 35]
Kb [1]: 4 nM | Ki (adenosine A3 receptor; [2]): 10 nM

Source: patent publication US7109202B2, “Aminothaizoles and their use as adenosine receptor antagonists” (Novartis AG, priority 2000, dated 2006)
